Patent EP0315019A2, “Fluoromethoxyphenyl-dihydropyridines, process for their preparation and their use in drugs” (BAYER AG, priority 1987, dated 1989)

Test system: isolierter Meerschweinchen-Herzvorhöfe
Experiment: Effect on contraction amplitude of isolated guinea pig heart atria
Conditions: Wirkstoffkonzentration 10⁻³ g/l, read-out: Substanzeffekte auf die Kontraktionsamplitude, Änderung in %

For CCCCCCCCCCOC(=O)C1=C(C)NC(C)=C([N+](=O)[O-])C1c1ccccc1OC(F)F (racemic) [Beispiel 1, 4-(2-Difluormethoxyphenyl)-1,4-dihydro-2,6-dimethyl-3-nitro-pyridin-5-carbonsäure-decylester], the activation at 1 µg/mL was 45%.
